According to paper PMC6152277, “Synthesis and Evaluation of New Quinoxaline Derivatives of Dehydroabietic Acid as Potential Antitumor Agents” (Molecules : A Journal of Synthetic Chemistry and Natural …, 2017):

Assays:
[1] = test system: human breast cancer cell line (MCF-7); test: MTT cytotoxic assay, MCF-7; format: cell-based; conditions: MCF7, 48 h exposure
Description: (§1) All the compounds (1–3, 4a–o) were evaluated for their in vitro cytotoxic activity against three cancer cell lines including human breast cancer cell line (MCF-7), human hepatocarcinoma cell line (SMMC-7721), human cervical carcinoma cell line (HeLa), and a noncancerous human hepatocyte cell line (LO2) using the MTT assay method. An anticancer drug etoposide (VP-16) was co-assayed as the positive control. The results of the test compounds shown as IC50 values (concentration required to inhibit tumor cell proliferation by 50%), are listed in Table 1.
(§2) The in vitro cytotoxic activities of the quinoxaline derivatives of DAA were evaluated against a human breast cancer cell line (MCF-7), human hepatocarcinoma cell line (SMMC-7721), human cervical carcinoma cell line (HeLa) and noncancerous human hepatocyte cells (LO2) via the MTT colorimetric method. Briefly, different tumor cells were grown in DMEM supplemented with 10% fetal bovine serum, penicillin (100 U/mL), and streptomycin (50 μg/mL). Cells were harvested at the log phase of growth and seeded in 96-well plates (100 μL/well at a density of 2 × 10^5 cells/mL). After 24 h of incubation at 37 °C and 5% CO2 to allow for cell attachment, cultures were exposed to various concentrations of the isolated compounds for 48 h. Finally, the MTT solution (2.5 mg/mL in PBS) was added (40 μL/well). Plates were further incubated for 4 h at 37 °C, and the formazan crystals formed were dissolved by adding 150 μL/well of DMSO. Absorption at 570 nm was measured with an ELISA plate reader. The results were expressed as IC50 values with standard deviations, which were defined as the concentrations at which a 50% survival of the cells was discerned. Etoposide (VP-16) was co-assayed as the positive control.

[2] = test system: human hepatocarcinoma cell line (SMMC-7721); test: MTT cytotoxic assay, SMMC-7721; format: cell-based; conditions: 48 h exposure
Description: as §1, §2

[3] = test system: human cervical carcinoma cell line (HeLa); test: MTT cytotoxic assay, HeLa; format: cell-based; conditions: 48 h exposure
Description: as §1, §2

[4] = test system: noncancerous human hepatocyte cells (LO2); test: MTT cytotoxic assay, LO2; format: cell-based; conditions: 48 h exposure, noncancerous hepatocytes
Description: as §1, §2

[5] = test system: three cancer cell lines (MCF-7, SMMC-7721, HeLa); test: MTT cytotoxic assay, summary statements over the three cancer cell lines; format: cell-based, human; conditions: for IC50: Homo sapiens, at least one of MCF-7, SMMC-7721, HeLa, strong cytotoxicity, read-out: IC50 against at least one cancer cell line; for cytotoxic activity against the three cancer cell lines (in words): MCF-7, SMMC-7721, HeLa
Description: as §1, §2

| Compound | IC50 [1] | IC50 [2] | IC50 [3] | IC50 [4] | IC50 [5] | cytotoxicity to HeLa and/or SMMC-7721 cell lines (in words) [5] | cytotoxic activity against the three cancer cell lines (in words) [5] |
| --- | --- | --- | --- | --- | --- | --- | --- |
| COC(=O)[C@]1(C)CCC[C@]2(C)c3cc(Br)c4nc(Cn5ccnn5)c(Cn5ccnn5)nc4c3CCC12 (stereo partly shown) [Compound 4m, Methyl 12-bromo-2′,3′-bis((1H-1,2,3-triazol-1-yl)methyl)-13,14-pyrazinyl-deisopropyl-dehydroabietate] | 3.73 ± 0.62 µM | 4.66 ± 0.42 µM | 2.18 ± 0.37 µM | 18.4 ± 1.73 µM | < 10 µM | – | – |
| COC(=O)[C@]1(C)CCC[C@]2(C)c3cc(Br)c(N)c(N)c3CCC12 (stereo partly shown) [Compound 2] | > 50 µM | > 50 µM | 43.3 ± 3.26 µM | > 50 µM | – | mild cytotoxicity | – |
| CCCN(CCC)Cc1nc2c(Br)cc3c(c2nc1CN(CCC)CCC)CCC1[C@](C)(C(=O)OC)CCC[C@]31C (stereo partly shown) [Compound 4c, Methyl 12-bromo-2′,3′-bis((dipropylamino)methyl)-13,14-pyrazinyldeisopropyl-dehydroabietate] | 21 ± 1.27 µM | 11 ± 0.58 µM | 8.67 ± 0.65 µM | > 50 µM | – | – | – |
| COC(=O)[C@]1(C)CCC[C@]2(C)c3cc(Br)c4nc(Cn5ccnc5)c(Cn5ccnc5)nc4c3CCC12 (stereo partly shown) [Compound 4l, Methyl 12-bromo-2′,3′-bis((1H-imidazol-1-yl)methyl)-13,14-pyrazinyl-deisopropyl-dehydroabietate] | 22.8 ± 3.21 µM | 15.3 ± 2.06 µM | 12.7 ± 1.35 µM | > 50 µM | – | – | moderate cytotoxic activity |
| COC(=O)[C@]1(C)CCC[C@]2(C)c3cc(Br)c4nc(Cn5ncnn5)c(Cn5ncnn5)nc4c3CCC12 (stereo partly shown) [Compound 4o, Methyl 12-bromo-2′, 3′-bis((2H-tetrazol-2-yl)methyl)-13,14-pyrazinyl-deisopropyl-dehydroabietate] | 24.4 ± 1.69 µM | 16.9 ± 1.95 µM | 20.5 ± 3.12 µM | > 50 µM | – | – | moderate cytotoxic activity |
| CC(C)c1ccc2c(c1)CC[C@H]1[C@](C)(C(=O)O)CCC[C@]21C [Compound 1, Dehydroabietic acid] | > 50 µM | > 50 µM | > 50 µM | > 50 µM | – | – | – |
| COc1cc([C@@H]2c3cc4c(cc3[C@@H](O[C@@H]3O[C@@H]5CO[C@@H](C)O[C@H]5[C@H](O)[C@H]3O)[C@H]3COC(=O)[C@H]23)OCO4)cc(OC)c1O [Etoposide, reference compound] | 0.73 ± 0.07 µM | 0.69 ± 0.18 µM | 0.87 ± 0.16 µM | 8.89 ± 0.38 µM | – | – | – |
| COC(=O)[C@]1(C)CCC[C@]2(C)c3cc(Br)c4nc(CN5CCNCC5)c(CN5CCNCC5)nc4c3CCC12 (stereo partly shown) [Compound 4i, Methyl 12-bromo-2′,3′-bis(piperazin-1-ylmethyl)-13,14-pyrazinyldeisopropyl-dehydroabietate] | 5.89 ± 0.56 µM | 4.32 ± 0.64 µM | 5.05 ± 0.72 µM | 21.9 ± 2.7 µM | < 10 µM | – | – |
| COC(=O)[C@]1(C)CCC[C@]2(C)c3cc(Br)c4nc(CN(C)C)c(CN(C)C)nc4c3CCC12 (stereo partly shown) [Compound 4a, Methyl 12-bromo-2′,3′-bis((dimethylamino)methyl)-13,14-pyrazinyldeisopropyl-dehydroabietate] | 2.36 ± 0.29 µM | 1.65 ± 0.22 µM | 2.08 ± 0.43 µM | 15.7 ± 0.65 µM | – | – | – |
| CCN1CCN(Cc2nc3c(Br)cc4c(c3nc2CN2CCN(CC)CC2)CCC2[C@](C)(C(=O)OC)CCC[C@]42C)CC1 (stereo partly shown) [Compound 4k, Methyl 12-bromo-2′,3′-bis((4-ethylpiperazin-1-yl)methyl)-13,14-pyrazinyl-deisopropyl-dehydroabietate] | 38.7 ± 2.87 µM | 26.4 ± 3.73 µM | 13.5 ± 2.21 µM | > 50 µM | – | – | moderate cytotoxic activity |
| COC(=O)[C@]1(C)CCC[C@]2(C)c3cc(Br)c4nc(CN5CCCCC5)c(CN5CCCCC5)nc4c3CCC12 (stereo partly shown) [Compound 4f, Methyl 12-bromo-2′,3′-bis(piperidin-1-ylmethyl)-13,14-pyrazinyldeisopropyl-dehydroabietate] | 8.95 ± 0.63 µM | 7.71 ± 0.82 µM | 5.98 ± 0.37 µM | 42.2 ± 2.78 µM | < 10 µM | – | – |
| COC(=O)[C@]1(C)CCC[C@]2(C)c3cc(Br)c4nc(CN5CCN(C)CC5)c(CN5CCN(C)CC5)nc4c3CCC12 (stereo partly shown) [Compound 4j, Methyl 12-bromo-2′,3′-bis((4-methylpiperazin-1-yl)methyl)-13,14-pyrazinyl-deisopropyl-dehydroabietate] | 12.2 ± 0.75 µM | 8.03 ± 0.7 µM | 6.62 ± 0.59 µM | 29.5 ± 3.61 µM | < 10 µM | – | – |
| COC(=O)[C@]1(C)CCC[C@]2(C)c3cc(Br)c4nc(CN5CCOCC5)c(CN5CCOCC5)nc4c3CCC12 (stereo partly shown) [Compound 4h, Methyl 12-bromo-2′,3′-bis(morpholinomethyl)-13,14-pyrazinyldeisopropyl-dehydroabietate] | 12.3 ± 1.03 µM | 16.3 ± 1.85 µM | 9.67 ± 1.13 µM | 36.6 ± 3.12 µM | – | – | – |
| COC(=O)[C@]1(C)CCC[C@]2(C)c3cc(Br)c4nc(Cn5cnnn5)c(Cn5cnnn5)nc4c3CCC12 (stereo partly shown) [Compound 4n, Methyl 12-bromo-2′,3′-bis((1H-tetrazol-1-yl)methyl)-13,14-pyrazinyl-deisopropyl-dehydroabietate] | 15.8 ± 0.81 µM | 10.9 ± 1.68 µM | 13.3 ± 2.71 µM | > 50 µM | – | – | moderate cytotoxic activity |
| COC(=O)[C@]1(C)CCC[C@]2(C)c3cc(Br)c4nc(CBr)c(CBr)nc4c3CCC12 (stereo partly shown) [Compound 3] | > 50 µM | 45.8 ± 5.28 µM | 37.7 ± 3.75 µM | > 50 µM | – | mild cytotoxicity | – |
| COC(=O)[C@]1(C)CCC[C@]2(C)c3cc(Br)c4nc(CN5CCCCCC5)c(CN5CCCCCC5)nc4c3CCC12 (stereo partly shown) [Compound 4g, Methyl 2′,3′-bis(azepan-1-ylmethyl)-12-bromo-13,14-pyrazinyldeisopropyl-dehydroabietate] | > 50 µM | 27.9 ± 2.91 µM | 32 ± 4.21 µM | > 50 µM | – | – | weak activity |
| CCCCN(CCCC)Cc1nc2c(Br)cc3c(c2nc1CN(CCCC)CCCC)CCC1[C@](C)(C(=O)OC)CCC[C@]31C (stereo partly shown) [Compound 4d, Methyl 12-bromo-2′,3′-bis((dibutylamino)methyl)-13,14-pyrazinyldeisopropyl-dehydroabietate] | 28.1 ± 0.92 µM | 32.7 ± 2.69 µM | 25.3 ± 3.01 µM | > 50 µM | – | – | weak activity |
| COC(=O)[C@]1(C)CCC[C@]2(C)c3cc(Br)c4nc(CN5CCCC5)c(CN5CCCC5)nc4c3CCC12 (stereo partly shown) [Compound 4e, Methyl 12-bromo-2′,3′-bis(pyrrolidin-1-ylmethyl)-13,14-pyrazinyldeisopropyl-dehydroabietate] | 20.4 ± 1.51 µM | 18.6 ± 2.37 µM | 12.8 ± 1.26 µM | > 50 µM | – | – | moderate cytotoxic activity |
